Measured values from ChEMBL document CHEMBL5291721, “A preclinical secondary pharmacology resource illuminates target-adverse drug reaction associations of marketed drugs” (Nat Commun, 2023).
*1 amine or outer side, *2 acyl side, *3 side chain or, on linkers, in order; H or OH if unused. Where a SMILES comes first, the peptide text is derived from it. Bridges are numbered along the chain shown (N, C = ends). [ ]: non-standard residue; d: D form. The star is where a group is joined. hTyr(3S-OH,4S-OH,3'-OSO3H) = N[C@H](C(=O)O)[C@H](O)[C@@H](O)c1ccc(O)c(OS(=O)(=O)O)c1; Orn(4R-OH,5R-OH) = O=C([C@H](C[C@@H](O)[C@@H](O)N[*:3])N[*:1])[*:2]; Pro(3S-OH,4S-Me) = C[C@H]1CN[C@H](C(=O)O)[C@H]1O; X1 = CCCCCOc1ccc(-c2cc(-c3ccc(C(=O)*)cc3)no2)cc1; Gln(3R-OH) = NC(=O)C[C@@H](O)[C@H](N)C(=O)O; Hyp = O=C(O)[C@@H]1C[C@@H](O)CN1

What was measured:
Androgen receptor = target: T1, Androgen receptor (Homo sapiens, UniProt P10275)
T1 sequence (P10275 whole entry): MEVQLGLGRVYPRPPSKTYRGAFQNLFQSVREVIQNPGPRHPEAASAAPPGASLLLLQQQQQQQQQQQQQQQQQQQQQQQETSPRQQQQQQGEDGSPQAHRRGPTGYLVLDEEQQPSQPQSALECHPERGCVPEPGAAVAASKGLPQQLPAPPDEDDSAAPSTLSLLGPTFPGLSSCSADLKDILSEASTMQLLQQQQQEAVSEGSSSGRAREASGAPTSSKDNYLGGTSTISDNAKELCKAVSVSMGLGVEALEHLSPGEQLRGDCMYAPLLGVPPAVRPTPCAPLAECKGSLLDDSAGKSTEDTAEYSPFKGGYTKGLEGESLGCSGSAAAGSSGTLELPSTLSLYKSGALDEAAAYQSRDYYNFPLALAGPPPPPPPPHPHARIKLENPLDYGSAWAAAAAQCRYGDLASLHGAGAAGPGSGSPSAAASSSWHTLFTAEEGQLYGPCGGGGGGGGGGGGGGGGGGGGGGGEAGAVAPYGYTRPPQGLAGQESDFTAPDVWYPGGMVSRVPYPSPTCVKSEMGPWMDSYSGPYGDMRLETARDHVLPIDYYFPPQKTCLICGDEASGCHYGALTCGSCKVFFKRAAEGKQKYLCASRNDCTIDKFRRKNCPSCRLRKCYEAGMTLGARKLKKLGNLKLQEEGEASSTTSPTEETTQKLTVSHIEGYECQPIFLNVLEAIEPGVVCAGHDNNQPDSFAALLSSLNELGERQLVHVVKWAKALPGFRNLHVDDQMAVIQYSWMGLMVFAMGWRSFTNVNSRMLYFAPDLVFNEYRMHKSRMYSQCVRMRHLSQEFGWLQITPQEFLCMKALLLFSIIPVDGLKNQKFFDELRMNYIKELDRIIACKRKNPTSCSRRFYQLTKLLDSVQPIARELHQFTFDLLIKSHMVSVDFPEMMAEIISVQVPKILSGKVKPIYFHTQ

Estrogen receptor = target: T2, Estrogen receptor (Homo sapiens, UniProt P03372)
T2 sequence (P03372 whole entry): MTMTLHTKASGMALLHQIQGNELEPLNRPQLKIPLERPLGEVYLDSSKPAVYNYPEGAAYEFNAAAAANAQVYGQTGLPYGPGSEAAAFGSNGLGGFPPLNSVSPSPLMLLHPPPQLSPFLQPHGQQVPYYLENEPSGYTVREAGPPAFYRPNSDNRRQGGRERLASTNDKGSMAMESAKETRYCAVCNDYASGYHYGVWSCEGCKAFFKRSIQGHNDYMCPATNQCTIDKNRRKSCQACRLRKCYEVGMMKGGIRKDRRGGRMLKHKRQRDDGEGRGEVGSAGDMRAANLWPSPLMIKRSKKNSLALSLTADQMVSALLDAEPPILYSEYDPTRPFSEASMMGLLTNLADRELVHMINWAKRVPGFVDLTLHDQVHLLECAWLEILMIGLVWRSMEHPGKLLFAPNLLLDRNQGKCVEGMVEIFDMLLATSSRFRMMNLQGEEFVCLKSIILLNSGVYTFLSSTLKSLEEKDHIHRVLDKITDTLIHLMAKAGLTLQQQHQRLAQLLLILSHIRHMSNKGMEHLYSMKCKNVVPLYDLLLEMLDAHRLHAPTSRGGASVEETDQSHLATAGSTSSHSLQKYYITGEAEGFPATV

Cannabinoid receptor 1 = Cannabinoid receptor 1 (Homo sapiens, UniProt P21554); assay type: functional, cell-based
Chain of Cannabinoid receptor 1 (P21554 whole entry): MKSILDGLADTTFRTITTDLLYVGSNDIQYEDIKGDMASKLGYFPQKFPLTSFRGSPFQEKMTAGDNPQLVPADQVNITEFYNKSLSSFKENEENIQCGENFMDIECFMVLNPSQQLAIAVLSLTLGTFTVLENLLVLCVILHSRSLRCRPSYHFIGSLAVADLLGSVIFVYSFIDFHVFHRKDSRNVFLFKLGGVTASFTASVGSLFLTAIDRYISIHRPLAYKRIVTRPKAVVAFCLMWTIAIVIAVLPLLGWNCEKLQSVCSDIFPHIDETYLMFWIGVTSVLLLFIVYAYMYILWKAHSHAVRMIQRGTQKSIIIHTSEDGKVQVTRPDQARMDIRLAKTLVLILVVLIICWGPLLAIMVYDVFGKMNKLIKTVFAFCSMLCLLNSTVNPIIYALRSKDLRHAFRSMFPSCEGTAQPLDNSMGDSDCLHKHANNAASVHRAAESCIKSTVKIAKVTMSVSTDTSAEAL

[1] = target: T3, Alpha-1A adrenergic receptor (Homo sapiens, UniProt P35348)
T3 sequence (P35348 whole entry): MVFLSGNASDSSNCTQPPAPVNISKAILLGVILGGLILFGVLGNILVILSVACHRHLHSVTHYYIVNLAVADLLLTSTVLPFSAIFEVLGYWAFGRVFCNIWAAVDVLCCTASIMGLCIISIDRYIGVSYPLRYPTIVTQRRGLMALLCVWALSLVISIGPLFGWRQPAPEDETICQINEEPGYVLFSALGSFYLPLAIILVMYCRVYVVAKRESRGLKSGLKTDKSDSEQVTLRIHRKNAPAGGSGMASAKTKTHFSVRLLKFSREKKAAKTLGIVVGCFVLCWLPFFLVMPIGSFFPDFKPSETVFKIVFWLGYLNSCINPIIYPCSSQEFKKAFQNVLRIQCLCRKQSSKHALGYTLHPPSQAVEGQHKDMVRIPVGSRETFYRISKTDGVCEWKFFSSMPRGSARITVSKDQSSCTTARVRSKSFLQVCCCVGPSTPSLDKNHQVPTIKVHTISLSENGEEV
Also: assay procedure not described here.

| SMILES | AC50 (Androgen receptor) [µM] | AC50 (Estrogen receptor) [µM] | AC50 (Cannabinoid receptor 1) [µM] | AC50 [1] [µM] |
| --- | --- | --- | --- | --- |
| COc1nccnc1NS(=O)(=O)c1ccc(N)cc1 | > 30 |  |  |  |
| NC(=O)c1nc(F)c[nH]c1=O | > 30 | > 30 |  |  |
| CN(C)CCCN1C(=O)c2cc([N+](=O)[O-])ccc2Oc2ccccc21 | > 30 | > 30 |  |  |
| CC(/C=C1\SC(=S)N(CC(=O)O)C1=O)=C\c1ccccc1 |  |  | > 30 |  |
| O=S(=O)(O)CCS [2-MERCAPTOETHANESULFONIC ACID] |  | > 30 |  |  |
| O=C1CN2Cc3c(ccc(Cl)c3Cl)N=C2N1 [ANAGRELIDE] |  |  |  | > 10 |
| CNCC[C@@H](Oc1ccccc1C)c1ccccc1 [ATOMOXETINE] |  |  | > 30 |  |
| O=C(O)COc1nn(Cc2ccccc2)c2ccccc12 [BENDAZAC] | > 30 | > 30 |  |  |
| CCc1oc2ccccc2c1C(=O)c1cc(Br)c(O)c(Br)c1 [BENZBROMARONE] |  |  | > 30 | > 10 |
| Cc1ccc([C@@H]2O[C@H](CO)[C@@H](O)[C@H](O)[C@H]2O)cc1Cc1ccc(-c2ccc(F)cc2)s1 [CANAGLIFLOZIN ANHYDROUS] | > 30 | > 30 |  |  |
| O=C(O)CCCc1ccc(N(CCCl)CCCl)cc1 [CHLORAMBUCIL] |  | > 30 |  |  |
| [H]/N=C(\N/C(=N/[H])NCCCCCCNC(=N)NC(=N)Nc1ccc(Cl)cc1)Nc1ccc(Cl)cc1 [CHLORHEXIDINE] |  |  |  | 0.607 |
| O=C(O)c1cc(=O)c2ccccc2o1 [CHROMOCARB] |  | > 30 |  |  |
| CN(CC(=O)O)C(=N)N [CREATINE] | > 30 | > 30 |  |  |
| N[C@@H](CSSC[C@H](N)C(=O)O)C(=O)O [CYSTINE] | > 30 |  |  |  |
| CNCC[C@H](Oc1cccc2ccccc12)c1cccs1 [DULOXETINE] |  |  | > 30 |  |
| Cn1c(=O)c2c(ncn2CC(O)CO)n(C)c1=O (configuration not stated) [DYPHYLLINE] |  | > 30 |  |  |
| C[C@]12CC[C@@H]3c4ccc(O)cc4CC[C@H]3[C@@H]1CC[C@@H]2OC(=O)CCC1CCCC1 [ESTRADIOL CYPIONATE] |  | 0.379 |  |  |
| CCC(=O)O[C@@H](O[P@](=O)(CCCCc1ccccc1)CC(=O)N1C[C@H](C2CCCCC2)C[C@H]1C(=O)O)C(C)C [FOSINOPRIL] |  | > 30 | > 30 |  |
| Nc1nc(O)c2ncn(COC(CO)CO)c2n1 [GANCICLOVIR] |  |  | > 30 |  |
| CC1(C)O[C@@H]2C[C@H]3[C@@H]4CCC5=CC(=O)CC[C@]5(C)[C@@]4(F)[C@@H](O)C[C@]3(C)[C@]2(C(=O)CCl)O1 [HALCINONIDE] |  | > 30 |  |  |
| C[C@]12CCC(=O)C=C1CC[C@@H]1[C@@H]2[C@@H](O)C[C@@]2(C)[C@H]1CC[C@]2(O)C(=O)COC(=O)CCC(=O)O [HYDROCORTISONE HEMISUCCINATE ANHYDROUS] |  | > 30 |  |  |
| N=C(N)NCc1cccc([123I])c1 [IOBENGUANE I 123] |  | > 30 |  |  |
| CC(C)(N)C(=O)N[C@H](Cc1c[nH]c2ccccc12)C(=O)N[C@H](Cc1c[nH]c2ccccc12)NC=O [MACIMORELIN] | > 30 | > 30 |  |  |
| C=C1c2c(Cl)ccc(O)c2C(=O)C2=C(O)[C@]3(O)C(=O)C(C(N)=O)=C(O)[C@@H](N(C)C)[C@@H]3[C@@H](O)[C@H]12 [MECLOCYCLINE] | > 30 | > 30 |  |  |

| SMILES | AC50 (Androgen receptor) [µM] | AC50 (Estrogen receptor) [µM] | AC50 (Cannabinoid receptor 1) [µM] | AC50 [1] [µM] |
| --- | --- | --- | --- | --- |
| Cc1cc2c(OCC(O)CNC(C)C)cccc2[nH]1 (configuration not stated) [MEPINDOLOL] | > 30 | > 30 |  |  |
| CC(=O)/N=c1/sc(S(N)(=O)=O)nn1C [METHAZOLAMIDE] |  | > 30 |  | > 10 |
| CC[C@@H](CO)NC(=O)[C@@H]1C=C2c3cccc4[nH]cc(c34)C[C@H]2N(C)C1 [METHYLERGONOVINE] |  |  | > 30 | 12 |
| CCCCCOc1ccc(-c2cc(-c3ccc(C(=O)N[C@H]4C[C@@H](O)[C@@H](O)NC(=O)[C@@H]5[C@@H](O)[C@@H](C)CN5C(=O)[C@H]([C@H](O)CC(N)=O)NC(=O)[C@H]([C@H](O)[C@@H](O)c5ccc(O)c(OS(=O)(=O)O)c5)NC(=O)[C@@H]5C[C@@H](O)CN5C(=O)[C@H]([C@@H](C)O)NC4=O)cc3)no2)cc1 [MICAFUNGIN] (X1-[Orn(4R-OH,5R-OH)]T[Hyp][hTyr(3S-OH,4S-OH,3'-OSO3H)][Gln(3R-OH)][Pro(3S-OH,4S-Me)]; lactam 1-C) | > 30 | 7.25 |  |  |
| CCOc1cc(N)c(Cl)cc1C(=O)NCC1CN(Cc2ccc(F)cc2)CCO1 (configuration not stated) [MOSAPRIDE] |  | > 30 |  |  |
| CCOc1ccc2ccccc2c1C(=O)N[C@@H]1C(=O)N2[C@@H]1SC(C)(C)[C@@H]2C(=O)O [NAFCILLIN] | > 30 | > 30 |  |  |
| CN1CCC[C@H]1c1cccnc1 [NICOTINE] |  | > 30 |  |  |
| CC(=O)Oc1ccccc1C(=O)Nc1ncc([N+](=O)[O-])s1 [NITAZOXANIDE] |  | > 30 | > 30 |  |
| CNCCC=C1c2ccccc2CCc2ccccc21 [NORTRIPTYLINE] |  |  |  | 0.114 |
| CCCCCCCCCCC[C@@H](C[C@@H]1OC(=O)[C@H]1CCCCCC)OC(=O)[C@H](CC(C)C)NC=O [ORLISTAT] |  | > 30 |  |  |
| COc1ccc(Cc2nccc3cc(OC)c(OC)cc23)cc1OC [PAPAVERINE] |  |  | > 30 |  |
| O=C1[C@H]2CCCC[C@H]2C(=O)N1CCCCN1CCN(c2nsc3ccccc23)CC1 [PEROSPIRONE] |  | > 30 |  |  |
| CC(C)COc1ccc(CNC(=O)N(Cc2ccc(F)cc2)C2CCN(C)CC2)cc1 [PIMAVANSERIN] | > 30 | > 30 |  |  |
| CC(C)(C)C(=O)NCCCC(=O)O [PIVAGABINE] |  | > 30 |  |  |
| CC(C)[N+](C)(CCOC(=O)C1c2ccccc2Oc2ccccc21)C(C)C [PROPANTHELINE] | > 30 | > 30 |  |  |
| CNC(=O)c1cc(Oc2ccc(NC(=O)Nc3ccc(Cl)c(C(F)(F)F)c3)c(F)c2)ccn1 [REGORAFENIB] | > 30 | > 30 |  |  |
| NC(=O)c1ncn([C@@H]2O[C@H](CO)[C@@H](O)[C@H]2O)n1 [RIBAVIRIN] |  |  | > 30 | > 10 |
| CN(C)C(=O)c1nc(CNC(=O)CN)n(-c2ccc(Cl)cc2C(=O)c2ccccc2Cl)n1 [RILMAZAFONE] | > 30 | > 30 |  |  |
| O=C(Nc1c(Cl)cncc1Cl)c1ccc(OC(F)F)c(OCC2CC2)c1 [ROFLUMILAST] |  |  | > 30 |  |
| CC(C)N(CCCCOCC(=O)NS(C)(=O)=O)c1cnc(-c2ccccc2)c(-c2ccccc2)n1 [SELEXIPAG] |  |  | 28 | > 10 |
| NC(=O)NS(=O)(=O)c1ccc(N)cc1 [SULFACARBAMIDE] |  | > 30 |  |  |
| CCCCCCCCNC(C)C(O)c1ccc(SC(C)C)cc1 (configuration not stated) [SULOCTIDIL] | > 30 | 16.7 |  |  |
| CN1CCN(CCCN2c3ccccc3Sc3ccc(S(=O)(=O)N(C)C)cc32)CC1 [THIOPROPERAZINE] |  |  | > 30 |  |
| NCCc1ccc(O)cc1 [TYRAMINE] |  | > 30 |  |  |
| Cc1cc(CC(=O)O)n(C)c1C(=O)c1ccc(Cl)cc1 [ZOMEPIRAC] |  |  | > 10 |  |
